Molecular target: T1, embryonic ectoderm development (EED) (Homo sapiens, UniProt O75530)
T1 construct: recombinant EED
Assay: SPR (Biacore […], EED immobilized on CM5 chip, […] Langmuir fit); supported by competitive co-IP against EZH2
Format: binding

T1 sequence (O75530 2-441): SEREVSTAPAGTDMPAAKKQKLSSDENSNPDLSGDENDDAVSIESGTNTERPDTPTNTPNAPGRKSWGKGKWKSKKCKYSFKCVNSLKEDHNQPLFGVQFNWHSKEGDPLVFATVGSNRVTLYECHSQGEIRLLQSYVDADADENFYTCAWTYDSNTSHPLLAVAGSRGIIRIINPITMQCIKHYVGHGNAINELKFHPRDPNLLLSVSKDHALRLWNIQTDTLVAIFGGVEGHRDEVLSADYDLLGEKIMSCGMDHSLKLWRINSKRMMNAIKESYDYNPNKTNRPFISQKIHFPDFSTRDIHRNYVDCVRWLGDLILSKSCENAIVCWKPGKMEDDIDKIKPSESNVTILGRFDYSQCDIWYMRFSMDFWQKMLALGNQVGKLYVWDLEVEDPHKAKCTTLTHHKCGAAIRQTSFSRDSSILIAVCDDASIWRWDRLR

## O=C(O[C@@H]1Cc2c(O)cc(O)cc2O[C@@H]1c1cc(O)c(O)c(O)c1)c1cc(O)c(O)c(O)c1 [1E7, EGCG]
  Kd: 15.1 µM

From article PMC4536998 (Oncotarget, 2015)
